Results from ChEMBL document CHEMBL1201862, “PubChem BioAssay data set” (2004).
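The compound was tested at five concentrations on cells cultured in 96-well plates, with a 48-hour exposure period. The concentration for 50% growth inhibition is given as GI50.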 Activity calls are given as the source filed them. No stated cut-off is given here; in the data, active = GI50 up to about 1.1 µM and inactive = higher.

Assays:
Test in all cases: NCI-60 cell line screen, 48 h
[1] = system: NCI-H23
[2] = system: HCT-116
[3] = system: NCI-H226
[4] = system: SNB-19
[5] = system: UACC-62
[6] = system: SK-MEL-2
[7] = system: Hs-578T
[8] = system: HCT-15
[9] = system: 786-0
[10] = system: SF-268
[11] = system: SW-620
[12] = system: COLO 205
[13] = system: SK-OV-3
[14] = system: MDA-MB-231
[15] = system: NCI-H522
[16] = system: MDA-MB-435
[17] = system: SK-MEL-5
[18] = system: OVCAR-8
[19] = system: EKVX

Row | Structure (SMILES) | GI50 [1] | GI50 [2] | GI50 [3] | GI50 [4] | GI50 [5] | GI50 [6] | GI50 [7] | GI50 [8] | GI50 [9] | GI50 [10] | GI50 [11] | GI50 [12] | GI50 [13] | GI50 [14] | GI50 [15] | GI50 [16] | GI50 [17] | GI50 [18] | GI50 [19]
1 | CCCCCCCCC/C=C1/CC(CO)(COC(=O)CC(C(C)C)C(C)C)OC1=O (centres undefined) | 13.1 µM (inactive) | 13.2 µM (inactive) | 6.07 µM (inactive) | 10.5 µM (inactive) | 12.5 µM (inactive) | 15.1 µM (inactive) | 0.109 µM (active) | 14.4 µM | 1.35 µM (inactive) | 11.3 µM (inactive) | 1.16 µM (inactive) | 0.193 µM (active) | 17.4 µM (inactive) | 2.59 µM (inactive) | 10.4 µM (inactive) | 2.79 µM (inactive) | 3.16 µM (inactive) | 16 µM (inactive) | 4.35 µM (inactive)
2 | C/C=C1/CN2CCC34c5ccccc5N5C(=O)C(C6CC78c9ccccc9N9C(=O)C=CC(C%10CC7N6C/C%10=C/C)C98)=CC(C1CC23)C54 (centres undefined) | 5.98 µM (inactive) | 5.53 µM (inactive) | 7.13 µM (inactive) | 7.87 µM (inactive) | 7.69 µM (inactive) | 6.53 µM (inactive) | 8.11 µM (inactive) | 3.75 µM | 4.67 µM (inactive) | 6.89 µM (inactive) | 1.59 µM (inactive) | 5.09 µM (inactive) | 9.79 µM (inactive) | 2.32 µM (inactive) | 3.11 µM (inactive) | 6.28 µM (inactive) | 5.83 µM (inactive) | 2.06 µM (inactive) | 6.64 µM (inactive)
3 | CC(=O)/C=C1/C(=O)C(CC(C)C)=C1CC(C)C | > 100 µM (inactive) | > 100 µM (inactive) | > 100 µM (inactive) | > 100 µM (inactive) | > 100 µM (inactive) | > 100 µM (inactive) | > 100 µM (inactive) | > 100 µM | > 100 µM (inactive) | > 100 µM (inactive) | > 100 µM (inactive) | > 100 µM (inactive) | > 100 µM (inactive) | > 100 µM (inactive) | > 100 µM (inactive) | > 100 µM (inactive) | > 100 µM (inactive) | > 100 µM (inactive) | > 100 µM (inactive)
4 | OC1(c2ccccc2)CSC2=Nc3ccccc3C3CCN1N23 (centres undefined) | 27.7 µM (inactive) | 29.3 µM (inactive) | 38.1 µM (inactive) | 15.5 µM (inactive) | 18.7 µM (inactive) | 15.8 µM (inactive) | 24.2 µM (inactive) | 17.6 µM | 18.7 µM (inactive) | 21.7 µM (inactive) | 21.4 µM (inactive) | 17.7 µM (inactive) | 32.7 µM (inactive) | 15.5 µM (inactive) | 20 µM (inactive) | 17 µM (inactive) | 17.7 µM (inactive) | 19.5 µM (inactive) | 3.89 µM (inactive)
5 | CCn1cc(C(=O)O)c(=O)c2cc(F)c(N3CCN(CN4C(=O)/C(=N\NC(=O)c5ccncc5)c5cc(Cl)ccc54)CC3)cc21 | 59.4 µM (inactive) | 58.6 µM (inactive) | > 100 µM (inactive) | 44.3 µM (inactive) | 58.7 µM (inactive) | 23 µM (inactive) | 45.2 µM (inactive) | 31.1 µM | 38.6 µM (inactive) | 61.4 µM (inactive) | 23.4 µM (inactive) | 52.7 µM (inactive) | 24.9 µM (inactive) | 52.7 µM (inactive) | 21.8 µM (inactive) | 28.6 µM (inactive) | 42.2 µM (inactive) | 28.5 µM (inactive) | 32.6 µM (inactive)
6 | CCOC(=O)/C=C(\C(=O)OCC)n1ccc(=O)n(CC(=O)OCC)c1=O | 8.07 µM (inactive) | 1.77 µM (inactive) | 6.52 µM (inactive) | 19.3 µM (inactive) | 7.36 µM (inactive) | 14 µM (inactive) | 20 µM (inactive) | 1.83 µM | 1.82 µM (inactive) | 13.2 µM (inactive) | 1.23 µM (inactive) | 1.26 µM (inactive) | 17.9 µM (inactive) | 6.12 µM (inactive) | 1 µM (active) | 5.85 µM (inactive) | 13 µM (inactive) | 5.25 µM (inactive) | 6.59 µM (inactive)
